According to BindingDB's records for doi:10.1021/cb500360c (AstraZeneca, 2014):

How the values were obtained:
[1] = biological target: UDP-N-acetylmuramate--L-alanine ligase (Pseudomonas aeruginosa (strain ATCC 15692 / DSM 22644 / CIP 104116 / JCM 14847 / LMG 12228 / 1C / PRS 101 / PAO1), UniProt Q9HW02); assay: P. aeruginosa MurC assay; settings: 25 °C
Procedure: The reactions (50 μL) were carried out in 50 mM Tris-HCl pH 8.0, 20 mM ammonium sulfate, 2.5 mM DTT, 0.002% Brij-35, 1 mM MgCl2, 18 μM UNAM, 38 μM ATP, 28 μM L-alanine, 2 μg/mL Poly uridine nucleic acid, 0.1 μM Polynucleotide Phosphorylase, 0.25X ribogreen and 3 nM enzyme in 384-well plate at 25 C for 60 minutes.

[2] = biological target: UDP-N-acetylmuramate--L-alanine ligase (Escherichia coli (strain K12), UniProt P17952); assay: E.coli MurC assay; settings: 25 °C
Procedure: The reactions (25 μL) were carried out in 25 mM Tris-HCl pH 8.0, 10 mM ammonium sulfate, 1.25 mM DTT, 0.002% Brij-35, 10 mM MgCl2, 40 μM UNAM, 100 μM ATP, 40 μM L-alanine and 15 nM enzyme in 384-well plate at 25 C for 50 minutes.

UDP-N-acetylmuramate--L-alanine ligase (Escherichia coli (strain K12), UniProt P17952), sequence (P17952 whole entry): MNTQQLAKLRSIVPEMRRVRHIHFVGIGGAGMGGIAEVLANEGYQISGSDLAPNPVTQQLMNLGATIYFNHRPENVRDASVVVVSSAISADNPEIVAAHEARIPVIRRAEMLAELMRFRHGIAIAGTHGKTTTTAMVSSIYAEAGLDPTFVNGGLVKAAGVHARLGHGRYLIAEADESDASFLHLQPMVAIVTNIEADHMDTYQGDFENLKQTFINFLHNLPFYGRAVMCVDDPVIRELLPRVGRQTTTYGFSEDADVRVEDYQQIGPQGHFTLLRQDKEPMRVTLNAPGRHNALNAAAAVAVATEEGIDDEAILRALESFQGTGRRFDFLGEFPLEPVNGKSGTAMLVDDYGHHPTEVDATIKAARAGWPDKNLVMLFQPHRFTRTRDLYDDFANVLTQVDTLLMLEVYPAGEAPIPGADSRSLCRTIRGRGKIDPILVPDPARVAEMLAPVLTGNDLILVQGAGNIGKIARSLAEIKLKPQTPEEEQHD

Row | IC50 [1] | IC50 [2] | SMILES
1 | 1.2 nM | 15 nM | COc1cc([C@H](CO)Nc2nc(Nc3cc(C(C)(C)C)n(C)n3)c3c[nH]nc3n2)ccn1 [(R)-2-(4-(5-tert-butyl-1-methyl-1H-pyrazol-3-ylamino)-1H-pyrazolo[3,4-d]pyrimidin-6-ylamino)-2-(2-methoxypyridin-4-yl)ethanol (18)]
2 | 7 nM | 60 nM | Cn1nc(Nc2nc(N[C@@H](COC(=O)NCCN3CCC(=O)N3)c3ccccc3)nc3n[nH]cc23)cc1C(C)(C)C [(R)-2-(4-(5-tert-butyl-1-methyl-1H-pyrazol-3-ylamino)-1H-pyrazolo[3,4-d]pyrimidin-6-ylamino)-2-phenylethyl 2-(3-oxopyrazolidin-1-yl)ethylcarbamate (25)]
3 | 6 nM | 52 nM | Cn1nc(Nc2nc(N[C@@H](COC(=O)NO)c3ccccc3)nc3n[nH]cc23)cc1C(C)(C)C [(R)-2-(4-(5-tert-butyl-1-methyl-1H-pyrazol-3-ylamino)-1H-pyrazolo[3,4-d]pyrimidin-6-ylamino)-2-phenylethyl hydroxycarbamate (20)]
4 | 4 nM | 21 nM | COc1ccc([C@H](CO)Nc2nc(Nc3cc(C(C)(C)C)n(C)n3)c3c[nH]nc3n2)cc1 [(R)-2-((4-((5-(tert-butyl)-1-methyl-1H-pyrazol-3-yl)amino)-1H-pyrazolo[3,4-d]pyrimidin-6-yl)amino)-2-(4-methoxyphenyl)ethanol (16)]
5 | 9 nM |  | Cn1nc(Nc2nc(N[C@@H](CO)c3cccnc3)nc3n[nH]cc23)cc1C(C)(C)C [(R)-2-((4-((5-(tert-butyl)-1-methyl-1H-pyrazol-3-yl)amino)-1H-pyrazolo[3,4-d]pyrimidin-6-yl)amino)-2-(pyridin-3-yl)ethanol (15)]
6 | 8 nM | 40 nM | Cn1nc(Nc2nc(N[C@@H](CO)c3ccccn3)nc3n[nH]cc23)cc1C(C)(C)C [(R)-2-((4-((5-(tert-butyl)-1-methyl-1H-pyrazol-3-yl)amino)-1H-pyrazolo[3,4-d]pyrimidin-6-yl)amino)-2-(pyridin-2-yl)ethanol (14)]
7 | 2 nM | 3 nM | Cn1nc(Nc2nc(N[C@@H](COC(=O)NCCO)c3ccccc3)nc3n[nH]cc23)cc1C(C)(C)C [(R)-2-(4-(5-tert-butyl-1-methyl-1H-pyrazol-3-ylamino)-1H-pyrazolo[3,4-d]pyrimidin-6-ylamino)-2-phenylethyl 2-hydroxyethylcarbamate (21)]
8 | 8 nM | 57 nM | Cn1nc(Nc2nc(N[C@@H](CO)c3ccncc3Cl)nc3n[nH]cc23)cc1C(C)(C)C [(R)-2-((4-((5-(tert-butyl)-1-methyl-1H-pyrazol-3-yl)amino)-1H-pyrazolo[3,4-d]pyrimidin-6-yl)amino)-2-(3-chloropyridin-4-yl)ethanol (19)]
9 | 1000 nM |  | OCC1CCCCN1c1nc(Nc2cc(C3CC3)[nH]n2)c2cn[nH]c2n1 (stereo unspecified) [(1-(4-(3-cyclopropyl-1H-pyrazol-5-ylamino)-1H-pyrazolo[3,4-d]pyrimidin-6-yl)piperidin-2-yl)methanol (1)]
10 | 1.3 nM | < 1 nM | Cn1nc(Nc2nc(N[C@@H](COC(=O)NCc3cc(=O)c(O)cn3O)c3ccccc3)nc3[nH]ncc23)cc1C(C)(C)C [(R)-2-(4-(5-tert-butyl-1-methyl-1H-pyrazol-3-ylamino)-1H-pyrazolo[3,4-d]pyrimidin-6-ylamino)-2-phenylethyl(1,5-dihydroxy-4-oxo-1,4-dihydropyridin-2-yl)methylcarbamate (23)]
11 | 50 nM |  | OC[C@@H](Nc1nc(Nc2cc(C3CC3)n[nH]2)c2c[nH]nc2n1)C1CCCCC1 [(S)-2-cyclohexyl-2-(4-(3-cyclopropyl-1H-pyrazol-5-ylamino)-1H-pyrazolo[3,4-d]pyrimidin-6-ylamino)ethanol (2)]
12 | 0.6 nM | 5 nM | Cn1nc(Nc2nc(N[C@@H](COC(=O)N3CCOC(CN)C3)c3ccccc3)nc3n[nH]cc23)cc1C(C)(C)C (stereo partly drawn) [(R)-((R)-2-(4-(5-tert-butyl-1-methyl-1H-pyrazol-3-ylamino)-1H-pyrazolo[3,4-d]pyrimidin-6-ylamino)-2-phenylethyl) 2-(aminomethyl)morpholine-4-carboxylate (26)]
13 | 11 nM | 101 nM | Cn1nc(Nc2nc(NC(CO)C3CCOCC3)nc3n[nH]cc23)cc1C(C)(C)C (stereo unspecified) [2-(4-(5-tert-butyl-1-methyl-1H-pyrazol-3-ylamino)-1H-pyrazolo[3,4-d]pyrimidin-6-ylamino)-2-(tetrahydro-2H-pyran-4-yl)ethanol (8)]
14 | 7 nM | 60 nM | Cc1cc([C@H](CO)Nc2nc(Nc3cc(C(C)(C)C)n(C)n3)c3c[nH]nc3n2)on1 [(S)-2-(4-(5-tert-butyl-1-methyl-1H-pyrazol-3-ylamino)-1H-pyrazolo[3,4-d]pyrimidin-6-ylamino)-2-(3-methylisoxazol-5-yl)ethanol (12)]
15 | 8 nM | 11 nM | Cn1nc(Nc2nc(N[C@H](CO)c3ccccc3)nc3[nH]ncc23)cc1C(C)(C)C [(S)-2-(4-(5-tert-butyl-1-methyl-1H-pyrazol-3-ylamino)-1H-pyrazolo[3,4-d]pyrimidin-6-ylamino)-2-phenylethanol (11)]
16 | 1 nM | < 5 nM | Cn1nc(Nc2nc(N[C@@H](CO)c3ccccc3)nc3n[nH]cc23)cc1C(C)(C)C [(R)-2-(4-(5-tert-butyl-1-methyl-1H-pyrazol-3-ylamino)-1H-pyrazolo[3,4-d]pyrimidin-6-ylamino)-2-phenylethanol (10)]
17 | 0.6 nM |  | Cn1nc(Nc2nc(N[C@@H](CO)C3CCCCC3)nc3n[nH]cc23)cc1C(C)(C)C [(R)-2-(4-(5-tert-butyl-1-methyl-1H-pyrazol-3-ylamino)-1H-pyrazolo[3,4-d]pyrimidin-6-ylamino)-2-cyclohexylethanol (6)]
18 | 10 nM |  | CC(C)c1cc(Nc2nc(N[C@H](CO)C3CCCCC3)nc3n[nH]cc23)[nH]n1 [(S)-2-cyclohexyl-2-(4-(5-isopropyl-1H-pyrazol-3-ylamino)-1H-pyrazolo[3,4-d]pyrimidin-6-ylamino)ethanol (3)]
19 |  | 2 nM | Cn1nc(Nc2nc(N[C@@H]3c4ccccc4C[C@@H]3O)nc3n[nH]cc23)cc1C(C)(C)C [(1R,2S)-1-(4-(5-tert-butyl-1-methyl-1H-pyrazol-3-ylamino)-1H-pyrazolo[3,4-d]pyrimidin-6-ylamino)-2,3-dihydro-1H-inden-2-ol (13)]
20 | < 0.5 nM | 4 nM | Cn1nc(Nc2nc(N[C@H](CO)c3cccc(F)c3)nc3n[nH]cc23)cc1C(C)(C)C [(S)-2-((4-((5-(tert-butyl)-1-methyl-1H-pyrazol-3-yl)amino)-1H-pyrazolo[3,4-d]pyrimidin-6-yl)amino)-2-(3-fluorophenyl)ethanol (17)]
21 | 5 nM |  | Cn1nc(Nc2nc(N[C@H](CO)C3CCCCC3)nc3n[nH]cc23)cc1C(C)(C)C [((S)-2-(4-(5-tert-butyl-1-methyl-1H-pyrazol-3-ylamino)-1H-pyrazolo[3,4-d]pyrimidin-6-ylamino)-2-cyclohexylethanol (7)]
22 | < 0.5 nM | 3 nM | CN1C(=O)NC[C@H]1CNC(=O)OC[C@H](Nc1nc(Nc2cc(C(C)(C)C)n(C)n2)c2c[nH]nc2n1)c1ccccc1 [(R)-2-(4-(5-tert-butyl-1-methyl-1H-pyrazol-3-ylamino)-1H-pyrazolo[3,4-d]pyrimidin-6-ylamino)-2-phenylethyl ((S)-3-methyl-2-oxoimidazolidin-4-yl)methylcarbamate (24)]
23 | 13 nM | 188 nM | CC(C)[C@H](CO)Nc1nc(Nc2cc(C(C)(C)C)n(C)n2)c2c[nH]nc2n1 [(R)-2-(4-(5-tert-butyl-1-methyl-1H-pyrazol-3-ylamino)-1H-pyrazolo[3,4-d]pyrimidin-6-ylamino)-3-methylbutan-1-ol (9)]
24 | 0.7 nM | 4 nM | Cn1nc(Nc2nc(N[C@@H](COC(=O)NCCN)c3ccccc3)nc3n[nH]cc23)cc1C(C)(C)C [(R)-2-(4-(5-tert-butyl-1-methyl-1H-pyrazol-3-ylamino)-1H-pyrazolo[3,4-d]pyrimidin-6-ylamino)-2-phenylethyl 2-aminoethylcarbamate (22)]
